Common to all, as to format: functional
The test system of test [1] is Escherichia coli. The test can be described thus: In vitro antibacterial activity against Escherichia coli 1850 WT.
For the next test, the system named is Clostridium perfringens. Nature of the test: In vitro antibacterial activity against Clostridium perfringens 615.
Test [2] has as its system Escherichia coli. Nature of the test: In vitro antibacterial activity against Escherichia coli 1919 PM.
Test [3] relates to Pseudomonas aeruginosa. Nature of the test: In vitro antibacterial activity against Pseudomonas aeruginosa P. aeruginosa 1911.
Another test concerns Bacteroides fragilis. The test can be described thus: In vitro antibacterial activity against Bacteroides fragilis 2017.
In a further test the test system is Staphylococcus aureus. Nature of the test: In vitro antibacterial activity against Staphylococcus aureus 853.
The next test relates to Streptococcus pneumoniae. The test can be described thus: In vitro antibacterial activity against Streptococcus pneumoniae 3512.
Test [4] relates to Pseudomonas aeruginosa. The test can be described thus: In vitro antibacterial activity against Pseudomonas aeruginosa 2032 WT.

In brackets after ≈: the same amount, converted by molar mass.

These results are taken from ChEMBL document CHEMBL1128935, “Synthesis and antibacterial, activity of 4-ureido trinems” (1996).

Regarding `C[C@@H](O)[C@H]1C(=O)N2C(C(=O)[O-])=C3[C@H](CCC[C@@H]3N(C)C(N)=O)[C@H]12.[Na+]`, the MIC is 0.25 µg/mL in the test with Escherichia coli [1]; < 0.12 µg/mL with Clostridium perfringens; < 0.12 µg/mL in the test on Escherichia coli [2]; 8 µg/mL in the test with Pseudomonas aeruginosa [3]; < 0.12 µg/mL in the test on Bacteroides fragilis; < 0.12 µg/mL in the test on Staphylococcus aureus. Further, the MIC with Streptococcus pneumoniae is < 0.12 µg/mL; against Pseudomonas aeruginosa [4], 1 µg/mL.

Take `C[C@@H](O)[C@H]1C(=O)N2C(C(=O)[O-])=C3[C@H](CCC[C@@H]3N(C)C(=O)NC(C)(C)C)[C@H]12.[Na+]`: the MIC against Escherichia coli [1] was 4 µg/mL; against Clostridium perfringens, < 0.12 µg/mL; against Escherichia coli [2], 0.5 µg/mL; in the test with Pseudomonas aeruginosa [3] it was 16 µg/mL; in the test on Bacteroides fragilis it was 0.5 µg/mL; in the test on Staphylococcus aureus it was 0.5 µg/mL. Besides, the MIC in the test with Streptococcus pneumoniae was < 0.12 µg/mL; in the test with Pseudomonas aeruginosa [4], 2 µg/mL.

As to `CCNC(=O)N(C)[C@H]1CCC[C@H]2C1=C(C(=O)[O-])N1C(=O)[C@H]([C@@H](C)O)[C@@H]21.[Na+]`, the MIC against Escherichia coli [1] was 2 µg/mL; with Clostridium perfringens, < 0.12 µg/mL; against Escherichia coli [2] it was 0.25 µg/mL; in the test with Pseudomonas aeruginosa [3], 16 µg/mL; in the test on Bacteroides fragilis, 0.5 µg/mL; with Staphylococcus aureus, 0.25 µg/mL. Besides, the MIC with Streptococcus pneumoniae is < 0.12 µg/mL; against Pseudomonas aeruginosa [4], 4 µg/mL.

For `CO[C@H]1CCC[C@H]2C1=C(C(=O)[O-])N1C(=O)[C@H]([C@@H](C)O)[C@@H]21.[Na+]` [SANFETRINEM SODIUM], the MIC with Escherichia coli [1] is 0.5 µg/mL; in the test with Clostridium perfringens, 0.03 µg/mL; in the test on Escherichia coli [2], 0.5 µg/mL; against Pseudomonas aeruginosa [3] it was > 32 µg/mL; in the test with Bacteroides fragilis, 0.06 µg/mL; with Staphylococcus aureus, 0.25 µg/mL. For the same molecule, the MIC against Streptococcus pneumoniae was < 0.01 µg/mL; against Pseudomonas aeruginosa [4], 16 µg/mL.

`C[C@@H](O)[C@H]1C(=O)N2C(C(=O)O)=C(SCCNC=N)C[C@H]12` [IMIPENEM ANHYDROUS]: the MIC against Escherichia coli [1] came out at 0.5 µg/mL (≈ 1.67 µM); against Clostridium perfringens, 0.03 µg/mL (≈ 0.1 µM); in the test on Escherichia coli [2], 0.5 µg/mL (≈ 1.67 µM); in the test with Pseudomonas aeruginosa [3], 4 µg/mL (≈ 13.4 µM); against Bacteroides fragilis, 0.06 µg/mL (≈ 0.2 µM); with Staphylococcus aureus, 0.1 µg/mL (≈ 0.334 µM). The MIC with Streptococcus pneumoniae was < 0.01 µg/mL; in the test on Pseudomonas aeruginosa [4], 4 µg/mL (≈ 13.4 µM).

Take `C[C@@H](O)[C@H]1C(=O)N2C(C(=O)[O-])=C3[C@H](CCC[C@@H]3N(C)C(=O)NCCO)[C@H]12.[Na+]`: the MIC in the test on Escherichia coli [1] is 0.5 µg/mL; in the test on Clostridium perfringens, < 0.12 µg/mL; against Escherichia coli [2] it was < 0.12 µg/mL; against Pseudomonas aeruginosa [3], 16 µg/mL; with Bacteroides fragilis, 0.25 µg/mL; with Staphylococcus aureus, 0.25 µg/mL. The MIC with Streptococcus pneumoniae is < 0.12 µg/mL; against Pseudomonas aeruginosa [4], 8 µg/mL.
